Experimental data: ChEMBL document CHEMBL1201862, “PubChem BioAssay data set” (2004)
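Five compound concentrations were applied to cells in 96-well plates for 48 hours; endpoints were derived by simple linear interpolation of the resulting dose-response curve. GI50: concentration for 50% inhibition of growth.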 The source made the active and inactive calls. Cut-off read from the data, not from the text of the source: active = GI50 up to about 1.1 µM and inactive = higher.

How the values were obtained:
Assay in all cases: growth of human tumour cells (NCI), 48 h
[1] = tested on: 786-0
[2] = tested on: A498
[3] = tested on: A549
[4] = tested on: ACHN
[5] = tested on: CAKI-1
[6] = tested on: CCRF-CEM
[7] = tested on: COLO 205
[8] = tested on: DLD-1
[9] = tested on: DMS-114
[10] = tested on: DMS-273
[11] = tested on: EKVX
[12] = tested on: HCC 2998
[13] = tested on: HCT-116
[14] = tested on: HCT-15
[15] = tested on: HL-60
[16] = tested on: HOP-18
[17] = tested on: HOP-62
[18] = tested on: HOP-92
[19] = tested on: HT-29
[20] = tested on: IGROV-1
[21] = tested on: K562
[22] = tested on: KM-20L2
[23] = tested on: KM12
[24] = tested on: LOX IMVI
[25] = tested on: LXFL 529
[26] = tested on: M14
[27] = tested on: M19-MEL
[28] = tested on: MOLT-4
[29] = tested on: Malme-3M
[30] = tested on: NCI-H226
[31] = tested on: NCI-H23
[32] = tested on: NCI-H460
[33] = tested on: NCI-H522
[34] = tested on: OVCAR-3
[35] = tested on: OVCAR-4
[36] = tested on: OVCAR-5
[37] = tested on: OVCAR-8
[38] = tested on: RPMI-8226
[39] = tested on: RXF 393
[40] = tested on: RXF 631
[41] = tested on: SF-268
[42] = tested on: SF-295
[43] = tested on: SF-539
[44] = tested on: SK-MEL-28
[45] = tested on: SK-MEL-2
[46] = tested on: SK-MEL-5
[47] = tested on: SK-OV-3
[48] = tested on: SN12C
[49] = tested on: SNB-19
[50] = tested on: SNB-75
[51] = tested on: SNB-78
[52] = tested on: SR
[53] = tested on: SW-620
[54] = tested on: TK-10
[55] = tested on: U-251
[56] = tested on: UACC-257
[57] = tested on: UACC-62
[58] = tested on: UO-31
[59] = tested on: XF498

## N#CC(/C(=N\NC(N)=S)C(=O)NC1C2CC3CC(C2)CC1C3)c1ccc(Cl)cc1 (configuration not stated)
[1]
  GI50: > 100 µM (inactive)
[2]
  GI50: > 100 µM (inactive)
[3]
  GI50: > 100 µM (inactive)
[4]
  GI50: > 100 µM (inactive)
[5]
  GI50: > 100 µM (inactive)
[6]
  GI50: > 100 µM (inactive)
[7]
  GI50: > 100 µM (inactive)
[8]
  GI50: > 100 µM (inactive)
[9]
  GI50: > 100 µM (inactive)
[10]
  GI50: > 100 µM (inactive)
[11]
  GI50: > 100 µM (inactive)
[12]
  GI50: > 100 µM (inactive)
[13]
  GI50: > 100 µM (inactive)
[14]
  GI50: > 100 µM
[15]
  GI50: > 100 µM (inactive)
[16]
  GI50: > 100 µM (inactive)
[17]
  GI50: > 100 µM (inactive)
[18]
  GI50: > 100 µM (inactive)
[19]
  GI50: > 100 µM (inactive)
[20]
  GI50: > 100 µM (inactive)
[21]
  GI50: > 100 µM (inactive)
[22]
  GI50: > 100 µM (inactive)
[23]
  GI50: > 100 µM (inactive)
[24]
  GI50: > 100 µM (inactive)
[25]
  GI50: > 100 µM (inactive)
[26]
  GI50: > 100 µM (inactive)
[27]
  GI50: > 100 µM (inactive)
[28]
  GI50: > 100 µM (inactive)
[29]
  GI50: > 100 µM (inactive)
[30]
  GI50: > 100 µM (inactive)
[31]
  GI50: > 100 µM (inactive)
[32]
  GI50: > 100 µM (inactive)
[33]
  GI50: > 100 µM (inactive)
[34]
  GI50: > 100 µM (inactive)
[35]
  GI50: > 100 µM (inactive)
[36]
  GI50: > 100 µM (inactive)
[37]
  GI50: > 100 µM (inactive)
[38]
  GI50: > 100 µM (inactive)
[39]
  GI50: > 100 µM (inactive)
[40]
  GI50: > 100 µM (inactive)
[41]
  GI50: > 100 µM (inactive)
[42]
  GI50: > 100 µM (inactive)
[43]
  GI50: > 100 µM (inactive)
[44]
  GI50: > 100 µM (inactive)
[45]
  GI50: > 100 µM (inactive)
[46]
  GI50: > 100 µM (inactive)
[47]
  GI50: > 100 µM (inactive)
[48]
  GI50: > 100 µM (inactive)
[49]
  GI50: > 100 µM (inactive)
[50]
  GI50: > 100 µM (inactive)
[51]
  GI50: > 100 µM (inactive)
[52]
  GI50: > 100 µM (inactive)
[53]
  GI50: > 100 µM (inactive)
[54]
  GI50: > 100 µM (inactive)
[55]
  GI50: > 100 µM (inactive)
[56]
  GI50: > 100 µM (inactive)
[57]
  GI50: > 100 µM (inactive)
[58]
  GI50: > 100 µM (inactive)
[59]
  GI50: > 100 µM (inactive)

## N#CC1(C#N)C(c2ccccc2)C=CC12OCCCO2 (configuration not stated)
[1]
  GI50: 31.9 µM (inactive)
[2]
  GI50: 48.6 µM (inactive)
[3]
  GI50: 88.9 µM (inactive)
[4]
  GI50: 42.7 µM (inactive)
[5]
  GI50: 24.5 µM (inactive)
[6]
  GI50: 26.9 µM (inactive)
[7]
  GI50: 26.2 µM (inactive)
[8]
  GI50: 26 µM (inactive)
[9]
  GI50: 24.3 µM (inactive)
[10]
  GI50: 32.3 µM (inactive)
[11]
  GI50: 59.3 µM (inactive)
[12]
  GI50: 84.9 µM (inactive)
[13]
  GI50: 24.9 µM (inactive)
[15]
  GI50: 23.4 µM (inactive)
[16]
  GI50: > 100 µM (inactive)
[17]
  GI50: > 100 µM (inactive)
[18]
  GI50: 30.5 µM (inactive)
[19]
  GI50: 47.5 µM (inactive)
[20]
  GI50: 60.5 µM (inactive)
[21]
  GI50: 30.6 µM (inactive)
[22]
  GI50: 68.5 µM (inactive)
[23]
  GI50: 38.1 µM (inactive)
[24]
  GI50: 40.4 µM (inactive)
[25]
  GI50: 28.5 µM (inactive)
[26]
  GI50: 29.7 µM (inactive)
[27]
  GI50: 40.3 µM (inactive)
[28]
  GI50: 26.7 µM (inactive)
[29]
  GI50: 42.2 µM (inactive)
[30]
  GI50: 78.7 µM (inactive)
[31]
  GI50: 31.2 µM (inactive)
[32]
  GI50: 42 µM (inactive)
[33]
  GI50: 16.3 µM (inactive)
[34]
  GI50: 33 µM (inactive)
[35]
  GI50: 59.4 µM (inactive)
[36]
  GI50: 51.5 µM (inactive)
[37]
  GI50: 17.7 µM (inactive)
[38]
  GI50: 27.7 µM (inactive)
[39]
  GI50: 17 µM (inactive)
[40]
  GI50: 81.3 µM (inactive)
[41]
  GI50: 28.4 µM (inactive)
[42]
  GI50: 76 µM (inactive)
[43]
  GI50: 21.6 µM (inactive)
[44]
  GI50: 27 µM (inactive)
[45]
  GI50: 72.4 µM (inactive)
[46]
  GI50: 53.8 µM (inactive)
[47]
  GI50: > 100 µM (inactive)
[48]
  GI50: 32.6 µM (inactive)
[49]
  GI50: > 100 µM (inactive)
[50]
  GI50: 42.9 µM (inactive)
[51]
  GI50: 31.6 µM (inactive)
[52]
  GI50: 27 µM (inactive)
[53]
  GI50: 31.1 µM (inactive)
[54]
  GI50: 48.9 µM (inactive)
[55]
  GI50: 45.2 µM (inactive)
[56]
  GI50: 27.4 µM (inactive)
[57]
  GI50: 33.3 µM (inactive)
[58]
  GI50: 97.3 µM (inactive)
[59]
  GI50: 49.4 µM (inactive)
